Source: ChEMBL document CHEMBL3868600, “Antibacterial profiling of abietane-type diterpenoids” (Bioorg Med Chem, 2017)
≈ marks a conversion by molar mass, not a printed value.

Assays:
[1] = tested on: Streptococcus mitis; experiment: Antibacterial activity against Streptococcus mitis NCIMB 13770 after 24 hrs by broth microdilution method; type: functional; settings: NCIMB 13770, 24 h
[2] = tested on: Salmonella typhimurium; experiment: Antibacterial activity against Salmonella typhimurium ATCC 13311 after 24 hrs by broth microdilution method; type: functional, Salmonella enterica subsp. enterica serovar Typhimurium; settings: Salmonella enterica, ATCC 13311, 24 h
[3] = tested on: Cutibacterium acnes; experiment: Antibacterial activity against Propionibacterium acnes ATCC 6919 after 24 hrs by broth microdilution method; type: functional; settings: ATCC 6919, 24 h
[4] = tested on: Staphylococcus epidermidis; experiment: Antibacterial activity against Staphylococcus epidermidis ATCC 12228 after 24 hrs by broth microdilution method; type: functional; settings: ATCC 12228, 24 h
[5] = tested on: Staphylococcus aureus; experiment: Antibacterial activity against Staphylococcus aureus ATCC 25923 after 24 hrs by broth microdilution method; type: functional; settings: ATCC 25923, 24 h
[6] = tested on: Candida albicans; experiment: Growth inhibition of Candida albicans ATCC 90028 at 50 uM after 48 hrs by broth microdilution method; type: functional; settings: ATCC 90028, 48 h, read-out: GI
[7] = Antifungal activity against Rhodotorula mucilaginosa ATCC 66034 after 48 hrs by broth microdilution method; type: functional
[8] = tested on: Staphylococcus aureus; experiment: Growth inhibition of Staphylococcus aureus ATCC 25923 at 50 uM after 24 hrs by broth microdilution method; type: functional; settings: ATCC 25923, 24 h, read-out: GI
[9] = tested on: Staphylococcus aureus; experiment: Antibacterial activity against methicillin-resistant Staphylococcus aureus ATCC 4330 after 24 hrs by broth microdilution method; type: functional; settings: ATCC 4330, 24 h
[10] = tested on: Escherichia coli; experiment: Growth inhibition of Escherichia coli ATCC 25922 at 50 uM after 24 hrs by broth microdilution method; type: functional; settings: ATCC 25922, 24 h, read-out: GI
[11] = Antifungal activity against Cladosporium cladosporioides ATCC 16022 after 48 hrs by broth microdilution method; type: functional
[12] = tested on: Candida albicans; experiment: Antifungal activity against Candida albicans ATCC 90028 after 48 hrs by broth microdilution method; type: functional; settings: ATCC 90028, 48 h
[13] = tested on: Escherichia coli; experiment: Antibacterial activity against Escherichia coli ATCC 25922 after 24 hrs by broth microdilution method; type: functional
[14] = tested on: Staphylococcus aureus; experiment: Ratio of MIC90 for Staphylococcus aureus ATCC 25923 to MIC90 for methicillin-resistant Staphylococcus aureus ATCC 4330; type: functional

| Molecule | MIC90 [1] | MIC90 [2] | MIC90 [3] | MIC90 [4] | inhibition of growth at 50 µM [6] | inhibition of growth at 50 µM [8] | inhibition of growth at 50 µM [10] | other results |
| --- | --- | --- | --- | --- | --- | --- | --- | --- |
| CN(C)[C@@H]1C(O)=C(C(N)=O)C(=O)[C@@]2(O)C(O)=C3C(=O)c4c(O)cccc4[C@@](C)(O)[C@H]3C[C@@H]12 [TETRACYCLINE] | 1 µg/mL (≈ 2.25 µM) | 16 µg/mL (≈ 36 µM) | 2 µg/mL (≈ 4.5 µM) | 1 µg/mL (≈ 2.25 µM) |  |  |  |  |
| O=C(O)c1cn(C2CC2)c2cc(N3CCNCC3)c(F)cc2c1=O [CIPROFLOXACIN] |  |  |  |  |  |  |  | MIC90 [5]: 1 µg/mL (≈ 3.02 µM) |
| COC(=O)[C@H](CO)NC(=O)[C@]1(C)CCC[C@@]2(C)[C@H]1CC=C1C=C(C(C)C)CC[C@@H]12 | > 125 µg/mL | > 125 µg/mL | > 125 µg/mL | 16 µg/mL (≈ 39.6 µM) | 39% | 76% | 9% | MIC90 [7]: 31 µg/mL (≈ 76.8 µM); IC50 [5]: 21 to 30 µg/mL (≈ 52 to 74.3 µM); MIC90 [5]: 61 µg/mL (≈ 151 µM); MIC90 [9]: 62 µg/mL (≈ 154 µM); MIC90 [11]: > 125 µg/mL |
| C[C@@H]1[C@H](O)[C@@H](C)/C=C/C=C/C=C/C=C/C=C/C=C/C=C/[C@H](O[C@@H]2O[C@H](C)[C@@H](O)[C@H](N)[C@@H]2O)C[C@@H]2O[C@](O)(C[C@@H](O)C[C@@H](O)[C@H](O)CC[C@@H](O)C[C@@H](O)CC(=O)O[C@H]1C)C[C@H](O)[C@H]2C(=O)O [AMPHOTERICIN B] |  |  |  |  |  |  |  | MIC90 [12]: 16 µg/mL (≈ 17.3 µM) |
| GENTAMICIN |  |  |  |  |  |  |  | MIC90 [13]: 2 µg/mL |
| COC(=O)[C@H](CC1CCCCC1)NC(=O)[C@]1(C)CCC[C@@]2(C)[C@H]1CC=C1C=C(C(C)C)CC[C@@H]12 |  |  |  |  | -35% | -8% | 3% |  |
| COC(=O)[C@@H](CO)NC(=O)[C@]1(C)CCC[C@]2(C)c3ccc(C(C)C)cc3CC[C@@H]12 | 8 µg/mL (≈ 19.9 µM) | 31 µg/mL (≈ 77.2 µM) | 16 µg/mL (≈ 39.8 µM) | 8 µg/mL (≈ 19.9 µM) |  |  |  | MIC90 [7]: 31 µg/mL (≈ 77.2 µM); IC50 [5]: 21 to 30 µg/mL (≈ 52.3 to 74.7 µM); MIC90 [5]: 60 µg/mL (≈ 149 µM); Ratio [14]: 7.5; MIC90 [9]: 8 µg/mL (≈ 19.9 µM); MIC90 [11]: > 125 µg/mL |
| CC[C@H](NC(=O)[C@]1(C)CCC[C@@]2(C)[C@H]1CC=C1C=C(C(C)C)CC[C@@H]12)C(=O)OC |  |  |  |  | 23% | -12% | 11% |  |
| CC(C)C1=CC2=CC[C@@H]3[C@](C)(CCC[C@@]3(C)C(=O)O)[C@H]2CC1 [ABIETIC ACID] | 16 µg/mL (≈ 52.9 µM) | 31 µg/mL (≈ 102 µM) | 4 µg/mL (≈ 13.2 µM) | 8 µg/mL (≈ 26.4 µM) | -53% | 44 to 45% | 0% | MIC90 [7]: 31 µg/mL (≈ 102 µM); MIC90 [5]: 63 µg/mL (≈ 208 µM); MIC90 [9]: 31 µg/mL (≈ 102 µM); MIC90 [11]: 63 µg/mL (≈ 208 µM) |
| O=C(N[C@H](CO)[C@H](O)c1ccc([N+](=O)[O-])cc1)C(Cl)Cl [CHLORAMPHENICOL] | 4 µg/mL (≈ 12.4 µM) | 8 µg/mL (≈ 24.8 µM) | 4 µg/mL (≈ 12.4 µM) | 8 µg/mL (≈ 24.8 µM) |  |  |  |  |
| COC(=O)[C@@H](NC(=O)[C@]1(C)CCC[C@@]2(C)[C@H]1CC=C1C=C(C(C)C)CC[C@@H]12)C(C)C |  |  |  |  | 0% | 6% | 6% |  |
| CC[C@H]1OC(=O)[C@H](C)[C@@H](O[C@H]2C[C@@](C)(OC)[C@@H](O)[C@H](C)O2)[C@H](C)[C@@H](O[C@@H]2O[C@H](C)C[C@H](N(C)C)[C@H]2O)[C@](C)(OC)C[C@@H](C)C(=O)[C@H](C)[C@@H](O)[C@]1(C)O [CLARITHROMYCIN] | 0.25 µg/mL (≈ 0.334 µM) |  | 0.5 µg/mL (≈ 0.668 µM) |  |  |  |  |  |
| CC1(C)S[C@@H]2[C@H](NC(=O)[C@H](N)c3ccccc3)C(=O)N2[C@H]1C(=O)O [AMPICILLIN] | 2 µg/mL (≈ 5.72 µM) | 0.5 µg/mL (≈ 1.43 µM) | 0.125 µg/mL (≈ 0.358 µM) | 2 µg/mL (≈ 5.72 µM) |  |  |  |  |
| COC(=O)[C@H](Cc1ccccc1)NC(=O)[C@]1(C)CCC[C@@]2(C)[C@H]1CC=C1C=C(C(C)C)CC[C@@H]12 |  |  |  |  | -13% | -1% | 6% |  |
| COC(=O)[C@H](CC(C)C)NC(=O)[C@]1(C)CCC[C@@]2(C)[C@H]1CC=C1C=C(C(C)C)CC[C@@H]12 |  |  |  |  | -8% | -9% | 6% |  |
| COC(=O)CNC(=O)[C@]1(C)CCC[C@@]2(C)[C@H]1CC=C1C=C(C(C)C)CC[C@@H]12 |  |  |  |  | 20% | 13% | 8% |  |
| OC(Cn1cncn1)(Cn1cncn1)c1ccc(F)cc1F |  |  |  |  |  |  |  | MIC90 [7]: 0.5 µg/mL (≈ 1.63 µM); MIC90 [11]: 520 µg/mL (≈ 1700 µM) |
| NYSTATIN |  |  |  |  |  |  |  | MIC90 [7]: 0.125 µg/mL; MIC90 [11]: 64 µg/mL |
| COC(=O)[C@H](CO)NC(=O)[C@]1(C)CCC[C@]2(C)c3ccc(C(C)C)cc3CC[C@@H]12 |  |  |  |  |  |  |  | IC50 [5]: 21 to 30 µg/mL (≈ 52.3 to 74.7 µM); MIC90 [5]: > 125 µg/mL |
